Where a name gives a salt, the structure may show the parent alone. Read-outs that look alike come from different tables or passages of the source.
What was measured:
[1] = system: gastric acid secretion; assay: Inhibition of gastric acid secretion (Total Acid Output) in rats; antisecretory activity; assay type: in vivo, Female Sprague-Dawley rats; conditions: for inhibition in vivo at 20 mg/kg: read-out: Percent Inhibition at 20 mg/kg id; for ED50: 1 h, read-out: ED50 (dose required to produce an average of 50% inhibition in Total Acid Output versus controls)
Experimental: The compounds of the invention are useful for inhibition of gastric acid secretion as measured by the following test. Female Sprague-Dawley rats are fasted twenty-four hours before testing and are given water ad libidum while being kept in individual cages. On the day of testing, the rats are weighed and are selected so that the rats in each test weigh within a range of ± 20 grams.
Surgery is carried out under light ether anesthesia. As soon as the rat is anesthetized its teeth are removed and a mid-line incision is made on the abdomen about 11/2 inches in length and the stomach and duodenum are exposed. If at this point the stomach is filled with food or fecal material, the rat is discarded. If the condition of the stomach is acceptable, a purse string stitch is placed on the fundic portion of the stomach with a suture, taking care not to pierce any blood vessels in the area. A small nick is then made into the stomach in the center of the purse string, and a cannula, consisting of a small vinyl tube with a flange on one end, is put into the stomach, and the purse string stitch is closed tightly around the flange. The test compound is administered either intraduodonally (i.d.) immediately after surgery or orally (p.o.) one hour prior to surgery at doses generally ranging from about 0.25 to about 160 mg/kg in a volume of 0.5 ml/100 grams rat. Control rats receive the test vehicle, 0.5% aqueous methyl cellulose.
After the surgery and (in the case of i.d. administration) after administration of the test compound, the abdominal wall and skin are closed simultaneously with three or four 18 mm wound clips and a collecting tube is placed on the cannula. Each rat is then placed in a box in which a longitudinal slit has been made to allow the cannula to hand freely and to allow the rat to move about unencumbered. After the rat has been allowed to stabilize for thirty minutes, the collection tube on the cannula is discarded and replaced with a clean tube to receive the gastric juice. Collections are made at one hour. At the end of the study, the cannula is removed and the rat is sacrificed.
The sample of gastric contents collected is drained into a centrifuge tube and centrifuged to pack down the sediment. The volume is read and a 1 ml aliquot of the supernatant is put into a beaker containing 10 ml distilled water and is titrated to pH7 using 0.01 N sodium hydroxide. Results are determined for Volume, Titratable Acid and Total Acid Output, where Volume equals total ml of gastric juice minus sediment; Titratable Acid (meg/1) equals amount of 0.01 N sodium hydroxide needed to titrate the acid to pH7; and Total Acid Output equals Titratable Acid times Volume. Results are reported as the ED50 dose (mg/kg required to produce an average of 50% inhibition in Total Acid Output versus controls in all the animals tested for a particular compound) and as percent inhibition.
Following the test procedure previously described, the following compounds were tested for their antisecretory activity. The ED50 values for p.o. administration and the percent inhibition for i.d. administration at 20 mg/kg are tabulated below (R1 '=H except where noted): […]

[2] = system: gastric acid secretion; assay: as above; assay type: in vivo, Female Sprague-Dawley rats; conditions: rat; for ED50: ip, intraperitoneally (footnote ++), read-out: ED50 (compound administered intraperitoneally)
[3] = rat, po, one hour prior to surgery

SMILES | inhibition in vivo at 20 mg/kg ([1]; rat, id, 20 mg/kg) [%] | ED50 [1, 3] [mg/kg] | other results
N=CN1CCCC(C(c2ccccc2)c2ccccc2)C1 (stereo not shown) | 68 |  | ED50 [2]: 7 mg/kg
CCCCCCCCN=CN1CCCC(C(c2ccccc2)c2ccccc2)C1 (stereo not shown) | 92.2 | 18.3 | 
N=CN1CCC(C(c2ccccc2)c2ccc(Cl)cc2)CC1 (stereo not shown) | 100 | 2.32 | 
CCCCCCCCN=CN1CCC(C(c2ccccc2)c2ccc(C)cc2)CC1 (stereo not shown) | 73 |  | 
COc1ccc(C(c2ccccc2)C2CCN(C=N)CC2)cc1 (stereo not shown) | 100 | 12.1 | 
CCCCCCCCN=CN1CCC(C(O)(c2ccccc2)c2ccccc2)CC1 |  |  | ED50 [2]: 5 mg/kg
C(=NC12CC3CC(CC(C3)C1)C2)N1CCC(C(c2ccccc2)c2ccccc2)CC1 | 0 | 37 | % inhibition at 80 mg/kg i.d. ([2]; i.d., 80 mg/kg (footnote)): 52%
C#CCN=CN1CCC(C(c2ccccc2)c2ccccc2)CC1 | 100 | 6.07 | 
C=CCN=CN1CCC(C(c2ccccc2)c2ccccc2)CC1 | 100 | 10.2 | 
CCCCCCCCC=CCCCCCCCCN=CN1CCC(C(c2ccccc2)c2ccccc2)CC1 | 78.9 | 66 | 
CC(C)N=CN1CCC(C(c2ccccc2)c2ccccc2)CC1 | 96 | 9.8 | 
CCCCCCCN=CN1CCC(C(c2ccccc2)c2ccccc2)CC1 | 72 | 11.6 | 
Clc1ccc(CN=CN2CCC(C(c3ccccc3)c3ccccc3)CC2)cc1 | 94 | 20.7 | 
COc1ccc(CN=CN2CCC(C(c3ccccc3)c3ccccc3)CC2)cc1 | 63 | < 40 | 
C(=NCCc1ccccc1)N1CCC(C(c2ccccc2)c2ccccc2)CC1 | 100 | 3.7 | 
CCCCCCCCCCCCN=CN1CCC(C(c2ccccc2)c2ccccc2)CC1.O=C(O)/C=C/C(=O)O [4-(Diphenylmethyl)-1-N-(n-dodecyliminomethyl)piperidine fumarate] | 80 | 53 | 
CCCCCCCCN=C(C)N1CCC(C(c2ccccc2)c2ccccc2)CC1.[O-][Cl+3]([O-])([O-])O [4-(Diphenylmethyl)-1-[1-(octylimino)ethyl]-piperidine Monoperchlorate] |  |  | ED50 ([1]; Rattus norvegicus, po): 14 mg/kg; inhibition in vivo at 20 mg/kg ([1]; Rattus norvegicus): 98%
CCCCCCCCN=CN1CCC(C(c2ccccc2)c2ccc(O)cc2)CC1 (stereo not shown) [4-[(4-hydroxyphenyl)phenylmethyl]-1-[(octylimino)methyl]piperidine] |  |  | ED50 [2]: 2 mg/kg

SMILES | inhibition in vivo at 20 mg/kg ([1]; rat, id, 20 mg/kg) [%] | ED50 [1, 3] [mg/kg] | other results
CCCCCCCCN=CN1CCC(C(c2ccccc2)c2ccc(OC)cc2)CC1 (stereo not shown) [4-[(4-methoxyphenyl)phenylmethyl]-1-[(octylimino)methyl]piperidine] | 62 | 16.9 | 
N=CN1CCCCC1 [N-iminomethylpiperidine] | 0 |  | inhibition of gastric acid secretion at doses four times or greater than those at which the subject compounds are active ([1]; doses four times or greater than active doses of subject compounds): does not inhibit gastric acid secretion; inhibition of gastric acid secretion at a dose of 100 mg/kg p.o. ([1]; rat, p.o., 100 mg/kg): no inhibition whatsoever; ED50 (mg/kg po): result in words ([1]; rat, po, at 80 (mg/kg)): Inactive; inhibition of gastric acid secretion at 80 mg/kg i.d. ([2]; i.d., 80 mg/kg): no inhibition whatsoever
CCCCCCCCN=CN1CCC(=C(c2ccccc2)c2ccccc2)CC1 [R1,A=benzhydrylidene; R2=H; R3=n-octyl] | 68.2 | 0.625 | 
CCCCCCCCN=CN1CCC(C2c3ccccc3-c3ccccc32)CC1 [R1=9-fluorenyl; A=H; R2=H; R3=n-octyl] | 48 | 15.9 | 
N=CN1CCC(Cc2ccccc2)CC1 [R1=benzyl; A=H; R2=H; R3=H] | 98 | 114 | 
Cl.N=CN1CCC(C(c2ccccc2)c2ccccc2)CC1.O [R1=diphenylmethyl; A=H; R2=H; R3=H, 4-Diphenylmethyl-1-iminomethylpiperidine hydrochloride hydrate] | 100 | 0.7 | 
C(=NCc1ccccc1)N1CCC(C(c2ccccc2)c2ccccc2)CC1 [R1=diphenylmethyl; A=H; R2=H; R3=benzyl] | 100 | 3.3 | 
C(=NCCCCc1ccccc1)N1CCC(C(c2ccccc2)c2ccccc2)CC1 [R1=diphenylmethyl; A=H; R2=H; R3=drawing 19] | 82 | 8.1 | 
CCN=CN1CCC(C(c2ccccc2)c2ccccc2)CC1 [R1=diphenylmethyl; A=H; R2=H; R3=ethyl, 4-(Diphenylmethyl)-1-N-ethyliminomethyl-piperidine oxalate hemihydrate] | 100 | 4.3 | 
CCCCN=CN1CCC(C(c2ccccc2)c2ccccc2)CC1 [R1=diphenylmethyl; A=H; R2=H; R3=n-butyl] | 100 | 8.6 | 
CCCCCCCCCCN=CN1CCC(C(c2ccccc2)c2ccccc2)CC1 [R1=diphenylmethyl; A=H; R2=H; R3=n-decyl] | 79 | 8.2 | 
CCCCCCN=CN1CCC(C(c2ccccc2)c2ccccc2)CC1 [R1=diphenylmethyl; A=H; R2=H; R3=n-hexyl] | 96 | 8.7 | 
CCCCCCCCCN=CN1CCC(C(c2ccccc2)c2ccccc2)CC1 [R1=diphenylmethyl; A=H; R2=H; R3=n-nonyl] | 93 | 19.6 | 
CCCCCCCCN=CN1CCC(C(c2ccccc2)c2ccccc2)CC1.O.O=C(O)/C=C/C(=O)O [R1=diphenylmethyl; A=H; R2=H; R3=n-octyl, 4-(Diphenylmethyl)-1-[(octylimino)methyl]piperidine Fumarate Hydrate] | 64 | 9.8 | 
CCC(=N)N1CCC(C(c2ccccc2)c2ccccc2)CC1 [R1=diphenylmethyl; A=H; R2=ethyl; R3=H] | 75 | > 40 | 
N=CN1CCC(c2ccccc2)CC1 [R1=phenyl; A=H; R2=H; R3=H] | 77 | ~40 | 
CC(=O)C1(c2ccccc2)CCN(C=N)CC1 [R1=phenyl; A=drawing 20; R2=H; R3=H] |  |  | inhibition in vivo at 20 mg/kg ([1]; Rattus norvegicus): 71%

Reference: US4251655A, “Substituted N-iminomethylpiperidines” (McNeilab, Inc., priority 1979, dated 1981)
